According to US20130203805A1, “Methods for treating anemia using inhibitors of hypoxia-inducible factor (HIF) hydroxylase” (FIBROGEN, INC., priority 2001, published 2013):

Key:
erythropoietin = experiment: Dose response in vivo: serum erythropoietin (Example 3); design: species or system Sprague Dawley male rats; conditions: rats; oral gavage 350 mg/kg on two days or 100 mg/kg daily days 1 to 7; within 1 day of treatment; FIG. 4A
Procedure: Twelve Sprague Dawley male rats (approx. 260 g) were obtained from Charles River Laboratories, Inc., and treated by oral gavage as follows: (1) Four rats were dosed daily for days 1 to 7 with 0.5% carboxymethyl cellulose (CMC; Sigma-Aldrich, St. Louis Mo.) (0 mg/kg), were not treated for days 8 to 14, and then were dosed daily for days 15 to 19 with 0.5% CMC (0 mg/kg); (2) four animals were treated on day 0 and day 3 with a total of 7 ml/kg/day of 5.0% compound C (50 mg/ml in 0.5% CMC) (350 mg/kg), were not treated days 8 to 14, and then were dosed daily for days 15 to 19 with 3% compound C: (30 mg/ml in 0.5% CMC) (60 mg/kg/day); and (3) four animals were treated daily for days 1 to 7 with a total volume of 4 ml/kg/day of 2.5% compound C (25 mg/ml in 0.5% CMC) (100 mg/kg), were not treated days 8 to 14, and then were dosed daily for days 15 to 19 with 3% compound C (60 mg/kg/day). Thus, groups (2) and (3) received a total of 700 mg compound/kg body weight over the first 7 days, no treatment from days 8 to 14, and then 60 mg/kg/day for another 5 days. Animals were monitored for change in body weight and signs of toxicity. Blood samples (2×0.5 ml) were collected on days 1, 3, 7, 10, 17 and 21 as follows. Animals were anesthetized with isoflurane and 0.5 ml of blood was collected from the tail vein of each animal into each of two MICROTAINER EDTA-2K tubes (Becton-Dickinson). […]

[1] = Dose response in vivo: reticulocytes, hemoglobin, hematocrit (Example 3); design: species or system Sprague Dawley male rats; conditions: rats
Procedure: Twelve Sprague Dawley male rats (approx. 260 g) were obtained from Charles River Laboratories, Inc., and treated by oral gavage as follows: (1) Four rats were dosed daily for days 1 to 7 with 0.5% carboxymethyl cellulose (CMC; Sigma-Aldrich, St. Louis Mo.) (0 mg/kg), were not treated for days 8 to 14, and then were dosed daily for days 15 to 19 with 0.5% CMC (0 mg/kg); (2) four animals were treated on day 0 and day 3 with a total of 7 ml/kg/day of 5.0% compound C (50 mg/ml in 0.5% CMC) (350 mg/kg), were not treated days 8 to 14, and then were dosed daily for days 15 to 19 with 3% compound C: (30 mg/ml in 0.5% CMC) (60 mg/kg/day); and (3) four animals were treated daily for days 1 to 7 with a total volume of 4 ml/kg/day of 2.5% compound C (25 mg/ml in 0.5% CMC) (100 mg/kg), were not treated days 8 to 14, and then were dosed daily for days 15 to 19 with 3% compound C (60 mg/kg/day). Thus, groups (2) and (3) received a total of 700 mg compound/kg body weight over the first 7 days, no treatment from days 8 to 14, and then 60 mg/kg/day for another 5 days. Animals were monitored for change in body weight and signs of toxicity. Blood samples (2×0.5 ml) were collected on days 1, 3, 7, 10, 17 and 21 as follows. Animals were anesthetized with isoflurane and 0.5 ml of blood was collected from the tail vein of each animal into each of two MICROTAINER EDTA-2K tubes (Becton-Dickinson). Blood samples were processed for erythropoietin levels, hemoglobin, and hematocrit as described above.

[2] = type: in vivo, Sprague Dawley male rats
Procedure: The ability of a compound of the invention to treat anemia associated with post-ischemic acute renal failure was assayed using a procedure described by Vaziri et al. (1994, Am J Physiol 266(3 Pt 2):[…]-6.) Fifteen Sprague Dawley male rats (280-300 g) were obtained from Charles River Laboratories. On day 0, rats were treated by intraperitoneal injection with a single dose of saline (control; n=3) at 8 ml/kg, or cisplatin (CP; Bedford Laboratories, Bedford Ohio) at either 7 mg/kg (7 ml/kg; n=6) or 10 mg/kg (10 ml/kg; n=6). Blood samples (0.2 ml) were collected on days 5, 9, and 16 as follows. […] Blood samples were processed for hematocrit as described above to determine the degree of anemia produced in each animal. […] Blood samples (0.5 ml) were collected as described above immediately prior to treatment and 4 days after treatment initiation. Blood samples were analyzed for CBC and reticulocyte counts as described above. On day 9 after initiation of oral treatment, a blood sample (0.1 ml) was collected and processed for hematocrit as described above.

O=C(O)CNC(=O)c1nc(Cl)c2ccccc2c1O [Compound C, [(1-chloro-4-hydroxy-isoquinoline-3-carbonyl)-amino]-acetic acid]
serum erythropoietin level (erythropoietin): significantly increased
increase in hemoglobin and hematocrit with lower doses ([1]; 60 mg/kg/day days 15 to 19 after no treatment days 8 to 14): maintained over an extended period of time
immature blood cells (reticulocytes) ([1]; oral gavage, total 700 mg/kg over first 7 days, FIG. 4B): subsequent increase
blood hemoglobin levels ([1]; oral gavage, total 700 mg/kg over first 7 days, FIG. 4C): increased
hematocrit ([1]; oral gavage, total 700 mg/kg over first 7 days, FIG. 4D): increased
hematocrit levels versus normal control ([2]; rats initially exposed to 7 mg/kg CP, 2 ml/kg of 2.5% compound C oral once daily 5 days, day 9, FIG. 5A): at or above normal control values
number of circulating reticulocytes ([2]; rats, CP-treated, 2 ml/kg of 2.5% compound C oral once daily 5 days, FIG. 5B): also increased
hematocrit versus non-treated counterparts ([2]; rats, CP-treated, 2 ml/kg of 2.5% compound C oral once daily 5 days, day 9 post-treatment, FIG. 5A): significantly higher
hematocrit in CP-treated animals ([2]; rats, 2 ml/kg of 2.5% compound C oral once daily 5 days from day 19, 4 days after initiating treatment, FIG. 5A): increased
